Measured values: patent US12630560B2, “Solid forms, pharmaceutical compositions and preparation of heteroaromatic macrocyclic ether compounds” (Nuvalent, Inc., priority 2021, dated 2026)
Where a name gives a salt, the structure may show the parent alone. Blank lines part the entries; values can stand above or below the compound they belong to.

Columns and labels:
Assay type in all cases: physicochemical
[1] = Dynamic vapour sorption (DVS); conditions: for weight increase (DVS): relative humidity from about 0 to about 90%, about 25° C.
Experimental: Approximately, 10-20 mg of sample was placed into a mesh vapour sorption balance pan and loaded into a DVS Advantage dynamic vapour sorption balance by Surface Measurement Systems. The sample was subjected to a ramping profile from 40-90% relative humidity (RH) at 10% increments, maintaining the sample at each step until a stable weight had been achieved (dm/dt 0.004%, minimum step length 30 minutes, maximum step length 500 minutes) at 25° C. After completion of the sorption cycle, the sample was dried using the same procedure to 0% RH and then a second sorption cycle back to 40% RH. Two cycles were performed. The weight change during the sorption/desorption cycles were plotted, allowing for the hygroscopic nature of the sample to be determined. XRPD analysis was then carried out on any solid retained.

[2] = Compression test at 100 and 250 MPa (XRPD after compression)
Experimental: Approximately 100 mg of Form 1 of Compound 1 was placed inside a FT-IR press, and a pressure of 100 MPa was applied and held for 60 seconds. The resulting material was analyzed by XRPD.
Approximately 100 mg of Form 1 of Compound 1 was placed inside the apparatus of the compression clamp. This apparatus was placed inside the compression clamp and a pressure of 250 MPa was applied and hold for 60 seconds. The resulting material was analyzed by XRPD.

[3] = 7-days stability studies of solid forms (storage, then XRPD and HPLC)
Experimental: Form 1 of Compound 1: Method. About 10 mg of Form 1 of Compound 1 was placed in a 2 ml vial and stored for 7 days under the following conditions: A) 40° C./75% RH (open vial); B) 25° C./60% RH (open vial); C) 80° C. (sealed vial). Solids were analyzed by XRPD and submitted for HPLC.
Form 2 of Compound 1: Method. Portions of Form 1 of Compound 1 (10 mg) were placed in 1.5 ml vials. One vial was stored for 7 days under each of the following conditions: A) 40° C./75% RH (open vial); B) 25° C./60% RH (open vial); C) 80° C. (sealed vial). Solids were analyzed by XRPD and submitted for HPLC.

[4] = Stability studies of Form A of a besylate salt (XRPD); conditions: 40° C. and 75% RH for 7 days
Excerpt: No changes in form were observed by XRPD.

[5] = Stability study of Compound 1 (Form 1) drug substance at three storage conditions
Experimental: A stability study was conducted for Compound 1 (Form 1) at three storage conditions: (1) 5° C.±3° C., ambient relative humidity (RH), data collected at 0 and 1 month; (2) 25° C.±2° C., 60%±5% RH, data collected at 0, 1, 3, 6, 9, and 12 months; and (3) 40° C.±2° C., 75%±5% RH, data collected at 0, 1, 3, and 6 months.

hygroscopicity [1]: hygroscopic | weight increase (DVS) [1]: about 2% | weight increase (DVS) ([1]; listed as Form A of a Besylate Salt of Compound 1): 2% | physical stability (form by XRPD) [4]: physically stable
SMILES: CCn1ncc2c1-c1cnc(N)c(c1)O[C@H](C)c1cc(F)ccc1-c1nn(C)nc1C2 [Form A of a besylate salt of Compound 1]

solid form stability by XRPD ([3]; 25° C./60% RH, 7 days): stable | solid form stability by XRPD ([3]; 40° C./75% RH, 7 days): stable | solid form by XRPD after storage ([3]; 80° C. (sealed vial), 7 days): correspond to that for Form 7
SMILES: CCn1ncc2c1-c1cnc(N)c(c1)O[C@H](C)c1cc(F)ccc1-c1nn(C)nc1C2 [Form 2]

weight increase (DVS) [1]: about 0.27%
SMILES: CCn1ncc2c1-c1cnc(N)c(c1)O[C@H](C)c1cc(F)ccc1-c1nn(C)nc1C2 [Form 7]

Further lines, the compound ahead of its results:

SMILES: CCn1ncc2c1-c1cnc(N)c(c1)O[C@H](C)c1cc(F)ccc1-c1nn(C)nc1C2 [Form 1 of Compound 1]
hygroscopicity [1]: non-hygroscopic | weight increase (DVS) [1]: about 0.25% | stability to compression (crystalline form by XRPD) ([2]; 100 MPa for 60 seconds): stable | stability to compression (crystalline form by XRPD) ([2]; 250 MPa for 60 seconds): stable | % Purity by HPLC ([3]; 25° C./60% RH (open vial), 7 days): 99.58% | % Purity by HPLC ([3]; 40° C./75% RH (open vial), 7 days): 99.66% | % Purity by HPLC ([3]; 80° C. (sealed vial), 7 days): 99.58% | stability of the solid form ([3]; all tested conditions (40° C./75% RH, 25° C./60% RH, 80° C.), 7 days): stable under all tested conditions | purity by HPLC after storage ([3]; all three samples: 40° C./75% RH, 25° C./60% RH, 80° C., one week): > 99.5%

SMILES: CCn1ncc2c1-c1cnc(N)c(c1)O[C@H](C)c1cc(F)ccc1-c1nn(C)nc1C2 [Compound 1]
chemical and physical stability (description, assay, related substances, water content, polymorphic form, chiral purity) ([5]; 25° C.±2° C./60%±5% RH, 12 months): No meaningful changes | chemical and physical stability (description, assay, related substances, water content, polymorphic form, chiral purity) ([5]; 40° C.±2° C./75%±5% RH, 6 months): No meaningful changes | compliance with acceptance criteria (purity at least 97%, individual impurities ≤0.2%, total ≤2.0%, enantiomeric purity at least 99.5%, Form 1) ([5]; all time points): complied with the acceptance criteria
